Test results as given in patent publication US20150125509A1, “TREATMENT OF FISH POPULATIONS WITH LUFENURON” (priority 2012, published 2015).

Tested on: L. salmonis
Test: Example 1: in-feed treatment in sea water, natural sea louse infestation, L. salmonis counts
Assay type: in vivo, Lepeophtheirus salmonis on Atlantic Salmon, S. salar
Details: for L. salmonis: all stages, Treated, average group counts / L. salmonis: pre- & adults, Efficacy / L. salmonis: pre- & adults, Treated, average group counts: sea water
Method: Three groups of 150 salmon (Atlantic Salmon, S. salar) of average weight 238 g were treated with medicated pellets containing lufenuron at a dose of respectively 3, 5 and 10 mg/kg/day during 7 consecutive days. The medicated pellets were prepared by dry coating commercially available fish feed pellets with a lufenuron-containing pre-mix to reach a content of 0.03, 0.05 and 0.1% (w/w) lufenuron in the fish feed and administered at a 1% feeding rate. The treatment was carried out in sea water.
Each group was maintained in a separate cage. A fourth cage containing 150 salmon of average weight 238 g was added to the study as a non-treated control group.
After treatment, the fish were exposed to natural sea louse infestation for a period of 9 months. During the study the water temperature varied between 4 and 12° C. Fish weight and sea louse numbers were assessed 1 day post-treatment, 1 week post-treatment and afterwards on a monthly basis until month 9. Counts were conducted on 10 fish at each sampling occasion. The numbers of chalimus, pre-adults and adult male, mobile and mature female L. salmonis were recorded for each fish. No distinction was made between chalimus stages I-IV or between pre-adult and adult male stages.
Efficacy was calculated using the formula:
% Efficacy=100−(100×mean of treatment group/mean of control).

[1] = 3 mg/kg/day 7 days in-feed, 1 month post-treatment
[2] = 3 mg/kg/day 7 days in-feed, 1 week post-treatment
[3] = 3 mg/kg/day 7 days in-feed, 2 month post-treatment
[4] = 3 mg/kg/day 7 days in-feed, 3 month post-treatment
[5] = 3 mg/kg/day 7 days in-feed, 4 month post-treatment
[6] = 3 mg/kg/day 7 days in-feed, 5 month post-treatment
[7] = 3 mg/kg/day 7 days in-feed, 6 month post-treatment
[8] = 3 mg/kg/day 7 days in-feed, 1 day post-treatment
[9] = 5 mg/kg/day 7 days in-feed, 1 month post-treatment
[10] = 5 mg/kg/day 7 days in-feed, 1 week post-treatment
[11] = 5 mg/kg/day 7 days in-feed, 2 month post-treatment
[12] = 5 mg/kg/day 7 days in-feed, 3 month post-treatment
[13] = 5 mg/kg/day 7 days in-feed, 4 month post-treatment
[14] = 5 mg/kg/day 7 days in-feed, 5 month post-treatment
[15] = 5 mg/kg/day 7 days in-feed, 6 month post-treatment
[16] = 5 mg/kg/day 7 days in-feed, 7 month post-treatment
[17] = 5 mg/kg/day 7 days in-feed, 8 month post-treatment
[18] = 5 mg/kg/day 7 days in-feed, 9 month post-treatment
[19] = 5 mg/kg/day 7 days in-feed, 1 day post-treatment
[20] = 10 mg/kg/day 7 days in-feed, 1 month post-treatment
[21] = 10 mg/kg/day 7 days in-feed, 1 week post-treatment
[22] = 10 mg/kg/day 7 days in-feed, 2 month post-treatment
[23] = 10 mg/kg/day 7 days in-feed, 3 month post-treatment
[24] = 10 mg/kg/day 7 days in-feed, 4 month post-treatment
[25] = 10 mg/kg/day 7 days in-feed, 5 month post-treatment
[26] = 10 mg/kg/day 7 days in-feed, 6 month post-treatment
[27] = 10 mg/kg/day 7 days in-feed, 7 month post-treatment
[28] = 10 mg/kg/day 7 days in-feed, 8 month post-treatment
[29] = 10 mg/kg/day 7 days in-feed, 9 month post-treatment
[30] = 10 mg/kg/day 7 days in-feed, 1 day post-treatment

O=C(NC(=O)c1c(F)cccc1F)Nc1cc(Cl)c(OC(F)(F)C(F)C(F)(F)F)cc1Cl (stereo not shown) [lufenuron, N-{[2,5-Dichlor-4-(1,1,2,3,3,3-hexafluorpropoxy)phenyl]carbamoyl}-2,6-difluorbenzamid]
9 months: protected the fish against sea louse infestation until (time post treatment) (Example 1, 5 mg/kg treatment) | protected the fish against sea louse infestation up to the end of the study (time post treatment) (Example 1, 10 mg/kg treatment)
0.50: L. salmonis: all stages, Treated, average group counts [17] | L. salmonis: pre- & adults, Treated, average group counts [17]
94%: L. salmonis: pre- & adults, Efficacy [18]
more than 95%: efficacy against sea lice at all time points (Example 1, 10 mg/kg group)
1.80: L. salmonis: all stages, Treated, average group counts [16]
96%: L. salmonis: pre- & adults, Efficacy [13] | L. salmonis: pre- & adults, Efficacy [26]
91%: L. salmonis: pre- & adults, Efficacy [12]
98%: L. salmonis: pre- & adults, Efficacy [27] | L. salmonis: pre- & adults, Efficacy [28]
77%: L. salmonis: pre- & adults, Efficacy [15]
90%: L. salmonis: pre- & adults, Efficacy [9] | L. salmonis: pre- & adults, Efficacy [17]
0.30: L. salmonis: all stages, Treated, average group counts [3] | L. salmonis: all stages, Treated, average group counts [26]
0.60: L. salmonis: all stages, Treated, average group counts [15] | L. salmonis: pre- & adults, Treated, average group counts [15] | L. salmonis: pre- & adults, Treated, average group counts [16]
0.00: L. salmonis: all stages, Treated, average group counts [1] | L. salmonis: pre- & adults, Treated, average group counts [1] | L. salmonis: all stages, Treated, average group counts [5] | L. salmonis: pre- & adults, Treated, average group counts [5] | L. salmonis: all stages, Treated, average group counts [10] | L. salmonis: pre- & adults, Treated, average group counts [10] | L. salmonis: all stages, Treated, average group counts [11] | L. salmonis: pre- & adults, Treated, average group counts [11] | L. salmonis: all stages, Treated, average group counts [19] | L. salmonis: pre- & adults, Treated, average group counts [19] | L. salmonis: pre- & adults, Treated, average group counts [20] | L. salmonis: pre- & adults, Treated, average group counts [21] | L. salmonis: all stages, Treated, average group counts [22] | L. salmonis: pre- & adults, Treated, average group counts [22] | L. salmonis: all stages, Treated, average group counts [24] | L. salmonis: pre- & adults, Treated, average group counts [24] | L. salmonis: all stages, Treated, average group counts [25] | L. salmonis: pre- & adults, Treated, average group counts [25] | L. salmonis: all stages, Treated, average group counts [29] | L. salmonis: pre- & adults, Treated, average group counts [29] | L. salmonis: all stages, Treated, average group counts [30] | L. salmonis: pre- & adults, Treated, average group counts [30]
0.40: L. salmonis: all stages, Treated, average group counts [18] | L. salmonis: pre- & adults, Treated, average group counts [18]
5 months: protected the fish against sea louse infestation until (time post-treatment) (Example 1, 3 mg/kg treatment)
95%: L. salmonis: pre- & adults, Efficacy [3] | L. salmonis: pre- & adults, Efficacy [4] | L. salmonis: pre- & adults, Efficacy [23]
3.10: L. salmonis: all stages, Treated, average group counts [20]
100%: L. salmonis: pre- & adults, Efficacy [1] | L. salmonis: pre- & adults, Efficacy [5] | L. salmonis: pre- & adults, Efficacy [11] | L. salmonis: pre- & adults, Efficacy [20] | L. salmonis: pre- & adults, Efficacy [22] | L. salmonis: pre- & adults, Efficacy [24] | L. salmonis: pre- & adults, Efficacy [25] | L. salmonis: pre- & adults, Efficacy [29]
0.80: L. salmonis: all stages, Treated, average group counts [27]
1.30: L. salmonis: all stages, Treated, average group counts [7] | L. salmonis: pre- & adults, Treated, average group counts [7]
97%: L. salmonis: pre- & adults, Efficacy [6] | L. salmonis: pre- & adults, Efficacy [14]
1.90: L. salmonis: all stages, Treated, average group counts [9]
50%: L. salmonis: pre- & adults, Efficacy [7]
88%: L. salmonis: pre- & adults, Efficacy [16]
0.10: L. salmonis: all stages, Treated, average group counts [2] | L. salmonis: pre- & adults, Treated, average group counts [2] | L. salmonis: pre- & adults, Treated, average group counts [3] | L. salmonis: pre- & adults, Treated, average group counts [4] | L. salmonis: all stages, Treated, average group counts [6] | L. salmonis: pre- & adults, Treated, average group counts [6] | L. salmonis: all stages, Treated, average group counts [8] | L. salmonis: pre- & adults, Treated, average group counts [8] | L. salmonis: pre- & adults, Treated, average group counts [9] | L. salmonis: all stages, Treated, average group counts [13] | L. salmonis: pre- & adults, Treated, average group counts [13] | L. salmonis: all stages, Treated, average group counts [14] | L. salmonis: pre- & adults, Treated, average group counts [14] | L. salmonis: all stages, Treated, average group counts [23] | L. salmonis: pre- & adults, Treated, average group counts [23] | L. salmonis: pre- & adults, Treated, average group counts [26] | L. salmonis: pre- & adults, Treated, average group counts [27] | L. salmonis: all stages, Treated, average group counts [28] | L. salmonis: pre- & adults, Treated, average group counts [28]
0.20: L. salmonis: all stages, Treated, average group counts [4] | L. salmonis: all stages, Treated, average group counts [12] | L. salmonis: pre- & adults, Treated, average group counts [12] | L. salmonis: all stages, Treated, average group counts [21]
